Data reported in US8652522B2, “Pharmaceutical composition of an iontophoresis” (Teikoku Seiyaku Co., Ltd., priority 2009, dated 2014).
Read-outs that look alike come from different tables or passages of the source.

Key:
[1] = blood plasma
Method: (§1) Moreover, the condition of the transdermally administration in association with the treatment of applying current is as follows.
(§2) This was funneled into a patch comprising an electrode and an adhesion layer, and cooled down at −80° C. to obtain a desired drug product.
Two NZ family male rabbits to be devoted to the test was bought from […] LABES Co., Ltd., (Charles River Japan, Inc.). […] The observation of the animal during the preliminary breeding and the test, as to a hair coat, a skin and a excretory substance was carried out every day.
The administration route: the transdermally administration in association with the treatment of applying current
The radioactivity density assay in the blood plasma was carried out as follows.
A sample for assay was treated by adding the solubilizing agent, and the measurement of the sample was carried out by using the liquid scintillation counter (LSC-1000, ALOKA). The limit of determinate quantity was two folds of the background, and the lesser value of the limit was determined as ND. The radioactivity density assay in the blood plasma was calculated from the measured value.
The radioactivity density is used as indication pointer, the calibrated concentration of the chemical drug converted with unaltered substance was calculated by the following formula. The calibrated concentration of the chemical drug (μg eq./mL)=The radioactivity density in the sample (dpm/mL)/{the amount of the administration radioactivity (dpm)/the amount of the administration chemical drug (μg)}

[2] = Method: as §1, §2
After that, an embedded freezing block was directed to the cutter of the microtome stage for mounting (CRYOMACROCUT, Leica), and a femoral region thereof was directed to the front, and a neck region was directed to the backside, and was fixed with being in close contact with the backside of the leg to the stage for mounting. When the stage for mounting of microtome was slid, the cutter was contacted perpendicular with the narrow side of the rectangular, the upper surface of this was chipped off as a sliced segment, the sliced segment was in close contact to the adhesive tape, and removed. This operation was repeated a couple dozens times, it was cleaved from the front portion of the knee to the backside portion, a segment of the administration and current-carrying part was (1) to (7) (from the front to the backside) in order of precedence.

Remark: listed apart in the source

In the case of `CC1CC2C3CCC4=CC(=O)C=CC4(C)C3(F)C(O)CC2(C)C1(O)C(=O)COP(=O)([O-])[O-].[Na+].[Na+]` (stereo not drawn) [[^3H] Betamethasone-21-phosphate disodium salt], the “average of drug conversion” value ([1]; 30 min. administration individual, 10 minutes) is reported as 0.01 μg eq./mL, the “average of drug conversion” value ([1]; 30 min. administration individual, 20 minutes) is reported as 0.03 μg eq./mL and the “average of drug conversion” value ([1]; 30 min. administration individual, 30 minutes) is reported as 0.09 μg eq./mL. The “average of drug conversion” value ([1]; 120 min. administration individual, 10 minutes) was 0.04 μg eq./mL, the “average of drug conversion” value ([1]; 120 min. administration individual, 20 minutes) was 0.09 μg eq./mL and the “average of drug conversion” value ([1]; 120 min. administration individual, 30 minutes) was 0.23 μg eq./mL. The “average of drug conversion” value ([1]; 120 min. administration individual, 60 minutes) was 0.66 μg eq./mL, the “average of drug conversion” value ([1]; 120 min. administration individual, 90 minutes) was 0.91 μg eq./mL and the “average of drug conversion” value ([1]; 120 min. administration individual, 120 minutes) was 1.17 μg eq./mL. The “blackened image according to 3H, cingulum of the perimysial tissue (perimysium)” value ([2]; existing up to the reticular dermis located in the inner side of the epidermal tissue) was “high density” and the “blackened image according to 3H at a fibrous encapsulation and a synovium membrane” value ([2]; synovial joint, administration time 120 minutes and 30 minutes) was “very slight amount”.

For `C[C@H]1C[C@H]2[C@@H]3CCC4=CC(=O)C=C[C@]4(C)[C@@]3(F)[C@@H](O)C[C@]2(C)[C@@]1(O)C(=O)COP(=O)([O-])[O-].[Na+].[Na+]` [betamethasone sodium phosphate], the “pair theoritical value % Mean” value (N2-W (nitrogen-bubbled purified water), 4° C. 1 month) was 107.68%, the “pair theoritical value % Mean” value (N2-W (nitrogen-bubbled purified water), 4° C. 2 weeks) was 99.20% and the “pair theoritical value % Mean” value (N2-W (nitrogen-bubbled purified water), 4° C. 4 month) was 100.06%. The “pair theoritical value % Mean” value (N2-W (nitrogen-bubbled purified water), 4° C. 6 month) was 98.27%, the “pair theoritical value % Mean” value (N2-W (nitrogen-bubbled purified water), 40° C. 1 month) was 85.82% and the “pair theoritical value % Mean” value (N2-W (nitrogen-bubbled purified water), 40° C. 4 month) was 100.30%. For the same compound, the “pair theoritical value % Mean” value (N2-W (nitrogen-bubbled purified water), 50° C. 1 month) was 89.72%, the “pair theoritical value % Mean” value (N2-W (nitrogen-bubbled purified water), 50° C. 4 month) was 77.62% and the “pair theoritical value % Mean” value (N2-W (nitrogen-bubbled purified water), 60° C. 1 month) was 38.91%. For the same compound, the “pair theoritical value % Mean” value (N2-W (nitrogen-bubbled purified water), 60° C. 2 weeks) was 91.76%, the “pair theoritical value % Mean” value (N2-W (nitrogen-bubbled purified water), 60° C. 4 month) was 41.97% and the “pair theoritical value % Mean” value (W (purified water), 4° C. 1 month) was 101.42%. The “pair theoritical value % Mean” value (W (purified water), 4° C. 2 weeks) was 101.05%, the “pair theoritical value % Mean” value (W (purified water), 4° C. 4 month) was 110.24% and the “pair theoritical value % Mean” value (W (purified water), 4° C. 6 month) was 98.01%. The “pair theoritical value % Mean” value (W (purified water), 40° C. 1 month) was 96.79%, the “pair theoritical value % Mean” value (W (purified water), 40° C. 4 month) was 100.99% and the “pair theoritical value % Mean” value (W (purified water), 50° C. 1 month) was 78.74%. For the same compound, the “pair theoritical value % Mean” value (W (purified water), 50° C. 4 month) was 70.87%, the “pair theoritical value % Mean” value (W (purified water), 60° C. 1 month) was 33.60% and the “pair theoritical value % Mean” value (W (purified water), 60° C. 2 weeks) was 85.69%. The “pair theoritical value % Mean” value (W (purified water), 60° C. 4 month) was 17.67%, the “pair theoritical value % Mean” value (pH 2, 4° C. 1 month) was 81.61% and the “pair theoritical value % Mean” value (pH 2, 4° C. 2 weeks) was 75.50%. The “pair theoritical value % Mean” value (pH 2, 4° C. 4 month) was 121.42%, the “pair theoritical value % Mean” value (pH 2, 40° C. 1 month) was 62.65% and the “pair theoritical value % Mean” value (pH 2, 40° C. 4 month) was 57.15%. The “pair theoritical value % Mean” value (pH 2, 40° C. 6 month) was 33.20%, the “pair theoritical value % Mean” value (pH 2, 50° C. 1 month) was 55.83% and the “pair theoritical value % Mean” value (pH 2, 50° C. 4 month) was 22.44%. For the same compound, the “pair theoritical value % Mean” value (pH 2, 60° C. 1 month) was 14.90%, the “pair theoritical value % Mean” value (pH 2, 60° C. 2 weeks) was 42.03% and the “pair theoritical value % Mean” value (pH 2, 60° C. 4 month) was 2.79%. The “pair theoritical value % Mean” value (pH 3, 4° C. 1 month) was 82.46%, the “pair theoritical value % Mean” value (pH 3, 4° C. 2 weeks) was 85.23% and the “pair theoritical value % Mean” value (pH 3, 4° C. 4 month) was 104.26%. The “pair theoritical value % Mean” value (pH 3, 40° C. 1 month) was 82.48%, the “pair theoritical value % Mean” value (pH 3, 40° C. 4 month) was 73.33% and the “pair theoritical value % Mean” value (pH 3, 40° C. 6 month) was 50.00%. The “pair theoritical value % Mean” value (pH 3, 50° C. 1 month) was 64.66%, the “pair theoritical value % Mean” value (pH 3, 50° C. 4 month) was 32.84% and the “pair theoritical value % Mean” value (pH 3, 60° C. 1 month) was 17.55%. The “pair theoritical value % Mean” value (pH 3, 60° C. 2 weeks) was 50.37%, the “pair theoritical value % Mean” value (pH 3, 60° C. 4 month) was 3.46% and the “pair theoritical value % Mean” value (pH 4, 4° C. 1 month) was 95.85%. For the same compound, the “pair theoritical value % Mean” value (pH 4, 4° C. 2 weeks) was 89.42%, the “pair theoritical value % Mean” value (pH 4, 4° C. 4 month) was 108.15% and the “pair theoritical value % Mean” value (pH 4, 4° C. 6 month) was 81.32%. For the same compound, the “pair theoritical value % Mean” value (pH 4, 40° C. 1 month) was 81.36%, the “pair theoritical value % Mean” value (pH 4, 40° C. 4 month) was 77.80% and the “pair theoritical value % Mean” value (pH 4, 40° C. 6 month) was 53.22%. For the same compound, the “pair theoritical value % Mean” value (pH 4, 50° C. 1 month) was 63.08%, the “pair theoritical value % Mean” value (pH 4, 50° C. 4 month) was 31.80% and the “pair theoritical value % Mean” value (pH 4, 60° C. 1 month) was 19.17%. For the same compound, the “pair theoritical value % Mean” value (pH 4, 60° C. 2 weeks) was 52.38%, the “pair theoritical value % Mean” value (pH 4, 60° C. 4 month) was 3.38% and the “pair theoritical value % Mean” value (pH 5, 4° C. 1 month) was 93.36%. The “pair theoritical value % Mean” value (pH 5, 4° C. 2 weeks) was 94.34%, the “pair theoritical value % Mean” value (pH 5, 4° C. 4 month) was 109.24% and the “pair theoritical value % Mean” value (pH 5, 4° C. 6 month) was 90.85%. For the same compound, the “pair theoritical value % Mean” value (pH 5, 40° C. 1 month) was 78.88%, the “pair theoritical value % Mean” value (pH 5, 40° C. 4 month) was 82.09% and the “pair theoritical value % Mean” value (pH 5, 50° C. 1 month) was 75.05%. The “pair theoritical value % Mean” value (pH 5, 50° C. 4 month) was 32.88%, the “pair theoritical value % Mean” value (pH 5, 60° C. 1 month) was 17.09% and the “pair theoritical value % Mean” value (pH 5, 60° C. 2 weeks) was 56.51%. The “pair theoritical value % Mean” value (pH 5, 60° C. 4 month) was 3.34%, the “pair theoritical value % Mean” value (pH 6, 4° C. 1 month) was 104.98% and the “pair theoritical value % Mean” value (pH 6, 4° C. 2 weeks) was 98.90%. For the same compound, the “pair theoritical value % Mean” value (pH 6, 4° C. 4 month) was 107.46%, the “pair theoritical value % Mean” value (pH 6, 4° C. 6 month) was 97.60% and the “pair theoritical value % Mean” value (pH 6, 40° C. 1 month) was 86.51%. For the same compound, the “pair theoritical value % Mean” value (pH 6, 40° C. 4 month) was 89.24%, the “pair theoritical value % Mean” value (pH 6, 50° C. 1 month) was 75.38% and the “pair theoritical value % Mean” value (pH 6, 50° C. 4 month) was 41.48%. For the same compound, the “pair theoritical value % Mean” value (pH 6, 60° C. 1 month) was 25.28%, the “pair theoritical value % Mean” value (pH 6, 60° C. 2 weeks) was 69.99% and the “pair theoritical value % Mean” value (pH 6, 60° C. 4 month) was 5.85%. For the same compound, the “pair theoritical value % Mean” value (pH 7, 4° C. 1 month) was 110.30%, the “pair theoritical value % Mean” value (pH 7, 4° C. 2 weeks) was 100.23% and the “pair theoritical value % Mean” value (pH 7, 4° C. 4 month) was 105.27%. The “pair theoritical value % Mean” value (pH 7, 4° C. 6 month) was 101.38%, the “pair theoritical value % Mean” value (pH 7, 40° C. 1 month) was 89.32% and the “pair theoritical value % Mean” value (pH 7, 40° C. 4 month) was 102.71%. The “pair theoritical value % Mean” value (pH 7, 50° C. 1 month) was 86.96%, the “pair theoritical value % Mean” value (pH 7, 50° C. 4 month) was 66.49% and the “pair theoritical value % Mean” value (pH 7, 60° C. 1 month) was 36.13%. The “pair theoritical value % Mean” value (pH 7, 60° C. 2 weeks) was 87.22%, the “pair theoritical value % Mean” value (pH 7, 60° C. 4 month) was 25.71% and the “pair theoritical value % Mean” value (pH 8, 4° C. 1 month) was 97.51%. The “pair theoritical value % Mean” value (pH 8, 4° C. 2 weeks) was 104.91%, the “pair theoritical value % Mean” value (pH 8, 4° C. 4 month) was 108.32% and the “pair theoritical value % Mean” value (pH 8, 4° C. 6 month) was 103.29%. The “pair theoritical value % Mean” value (pH 8, 40° C. 1 month) was 90.10%, the “pair theoritical value % Mean” value (pH 8, 40° C. 4 month) was 106.12% and the “pair theoritical value % Mean” value (pH 8, 50° C. 1 month) was 103.57%. For the same compound, the “pair theoritical value % Mean” value (pH 8, 50° C. 4 month) was 83.79%, the “pair theoritical value % Mean” value (pH 8, 60° C. 1 month) was 45.01% and the “pair theoritical value % Mean” value (pH 8, 60° C. 2 weeks) was 95.80%. For the same compound, the “pair theoritical value % Mean” value (pH 8, 60° C. 4 month) was 61.99%.
